The test relates to ACE activity in T-cells. The test can be described thus: ACE activity in T-cells after administration of a protease inhibitor. It counts as cell-based.

On to `CC(C)C[C@H](NC(=O)[C@@H](O)[C@H](N)Cc1ccccc1)C(=O)O` [bestatin], for which the “ACE activity in T-cells” value is reported as “increased ACE activity”.

Values taken from patent publication US7022693B2, “Treatment of lipodystrophy” (Ark Therapeutics Ltd., priority 2001, dated 2006).
